According to ChEMBL document CHEMBL5154645, “Potent Anti-SARS-CoV-2 Activity by the Natural Product Gallinamide A and Analogues via Inhibition of Cathepsin L” (J Med Chem, 2022):
Activity calls are given as the source filed them. No cut-off for these calls is given here.

Tested on: SARS-CoV-2
Assay: Antiviral activity against SARS-CoV-2 infected in human A549 cells overexpressing ACE2 assessed as reduction in virus-induced cytopathic effect at 625 nM incubated for 1 hr followed by viral infection measured after 96 hrs by inverted microscopy
Type: functional, organism-based
Details: Severe acute respiratory syndrome coronavirus 2, time 97.0 hrs

CC[C@H](C)[C@@H](C(=O)O[C@@H](CC(C)C)C(=O)N[C@@H](CC(C)C)C(=O)N[C@@H](C)/C=C/C(=O)N1C(=O)C=C(OC)[C@@H]1C)N(C)C [GALLINAMIDE A]
Activity: Active
